The nature of data set [1]: log P determination by HPLC (EEC directive 79/831 Annex V.A8). The data set is classed as physicochemical. Conditions: pH 2.3; HPLC gradient method, acetonitrile/0.1% aqueous phosphoric acid. On the procedure:
[The log P values were determined in accordance with EEC directive 79/831 Annex V.A8 by HPLC (gradient method, acetonitrile/0.1% aqueous phosphoric acid)]

In a further data set the test system is Meloidogyne incognita. In words: Meloidogyne test. As to conditions: 20 ppm, after 2 weeks, lettuce in sand. The data set is classed as in vivo. As for the experimental part: To produce a suitable preparation of active compound, 1 part by weight of active compound is mixed with the stated amounts of solvent and emulsifier, and the concentrate is diluted with water to the desired concentration.
Containers are filled with sand, solution of active compound, Meloidogyne incognita egg/larvae suspension and lettuce seeds. The lettuce seeds germinate and the plants develop. Galls form on the roots.
After 2 weeks, the nematicidal activity is determined by the gall formation in %. 100% means that no galls have been found; 0% activity means that the number of galls on the treated plants corresponds to that of the untreated control.

As a reminder, the chromatographic logP is lipophilicity estimated from chromatographic retention. Read a high chromatographic logP as a more lipophilic compound. Compound `C/C(=N\C#N)NC(C)C1CCCCC1` (stereo not drawn) [Example 1, R-(−)-N-cyano-N′-cyclohexyl-eth-1-yl-ethane-imid-amide] came in with a chromatographic logP in data set [1] of 2.19. In the data set on Meloidogyne incognita, the “kill (nematicidal activity by gall formation)” value is 100%.
